Test results as given in patent US10894784B2, “Heteroarylbenzimidazole compounds” (BAYER PHARMA AKTIENGESELLSCHAFT, priority 2015, dated 2021).

Target: TBK1 (Homo sapiens (Human), UniProt Q9UHD2)
Test: TBK1 low ATP kinase assay (in vitro assay 1)
Type: biochemical
Settings: TBK1 low ATP kinase assay IC50, in vitro assay 1

TBK1, sequence (Q9UHD2 whole entry): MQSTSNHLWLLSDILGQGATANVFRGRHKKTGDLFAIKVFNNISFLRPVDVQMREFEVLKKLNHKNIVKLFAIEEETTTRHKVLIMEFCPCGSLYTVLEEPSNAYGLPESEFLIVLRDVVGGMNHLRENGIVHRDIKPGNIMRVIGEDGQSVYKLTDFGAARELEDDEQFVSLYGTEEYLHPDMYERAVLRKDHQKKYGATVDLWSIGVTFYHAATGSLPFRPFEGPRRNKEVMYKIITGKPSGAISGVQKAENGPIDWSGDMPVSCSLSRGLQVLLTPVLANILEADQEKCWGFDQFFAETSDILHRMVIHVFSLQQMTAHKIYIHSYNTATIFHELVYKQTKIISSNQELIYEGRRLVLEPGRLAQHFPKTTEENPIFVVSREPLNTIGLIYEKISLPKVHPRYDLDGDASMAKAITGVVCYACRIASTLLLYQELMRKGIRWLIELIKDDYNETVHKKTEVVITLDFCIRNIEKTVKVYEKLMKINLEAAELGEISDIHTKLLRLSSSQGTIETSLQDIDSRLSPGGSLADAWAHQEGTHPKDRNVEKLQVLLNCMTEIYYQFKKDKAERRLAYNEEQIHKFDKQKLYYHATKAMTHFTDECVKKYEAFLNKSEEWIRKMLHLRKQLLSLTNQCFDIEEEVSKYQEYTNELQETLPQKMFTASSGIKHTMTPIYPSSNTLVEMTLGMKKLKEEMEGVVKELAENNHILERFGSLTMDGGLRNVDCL

In the case of `CC(c1ccnc(Nc2nc3ccc(-c4cc(OCC5CC5)ncn4)cc3[nH]2)c1)N1CCN(C(=O)CC(F)(F)F)CC1` (single isomer, unassigned) [Example 85.03, 1-(4-{(1R or 1S)-1-[2-({6-[6-(cyclopropylmethoxy)pyrimidin-4-yl]-1H-benzimidazol-2-yl}amino)pyridin-4-yl]ethyl}piperazin-1-yl)-3,3,3-trifluoropropan-1-one], the IC50 is reported as 1.8 nM.

Same assay, conditions: in vitro assay 1, read-out: TBK1 low ATP kinase assay IC50

Going from `COc1cnccc1-c1ccc2nc(Nc3cc(CN4CCN(C(=O)CC(F)(F)F)CC4)ccn3)[nH]c2c1OCC(C)C` [Example 50.01, 3,3,3-trifluoro-1-{4-[(2-{[6-(3-methoxypyridin-4-yl)-7-(2-methylpropoxy)-1H-benzimidazol-2-yl]amino}pyridin-4-yl)methyl]piperazin-1-yl}propan-1-one] to `COc1cc(-c2ccc3nc(Nc4cc(C(C)N5CCN(C(=O)CC(F)(F)F)CC5)ccn4)[nH]c3c2)ncn1` (single isomer, unassigned) [Example 34.03.01.B, 3,3,3-trifluoro-1-{4-[(1S or 1R)-1-(2-{[6-(6-methoxypyrimidin-4-yl)-1H-benzimidazol-2-yl]amino}pyridin-4-yl)ethyl]piperazin-1-yl}propan-1-one], the IC50 falls from 499 nM to 50.1 nM (10-fold). The second is the more potent here.

Going from `CC(c1ccnc(Nc2nc3ccc(-c4ccncn4)cc3[nH]2)c1)N1CCN(C(=O)C2CCC2)CC1` (single isomer, unassigned) [Example 23.05.03.B, cyclobutyl{4-[(1S or 1R)-1-(2-{[6-(pyrimidin-4-yl)-1H-benzimidazol-2-yl]amino}pyridin-4-yl)ethyl]piperazin-1-yl}methanone] to `COCc1cc(-c2ccc3nc(Nc4cc(C(C)N5CCN(C(=O)C6CC6)CC5)ccn4)[nH]c3c2)ncn1` (single isomer, unassigned) [Example 84.03, cyclopropyl(4-{(1R or 1S)-1-[2-({6-[6-(methoxymethyl)pyrimidin-4-yl]-1H-benzimidazol-2-yl}amino)pyridin-4-yl]ethyl}piperazin-1-yl)methanone], the IC50 falls from 14.5 nM to 1.7 nM (8.5-fold).

First: O=C(C1CC1)N1CCN(Cc2ccnc(Nc3nc4ccc(-c5ncnc(NCC6CCC6)c5F)cc4[nH]3)c2)CC1 [Example 191.03]
Second: Cn1ncnc1-c1ccc2nc(Nc3cc(CN4CCN(C(=O)C5CC5)CC4)ccn3)[nH]c2c1 [Example 41.03, cyclopropyl{4-[(2-{[6-(1-methyl-1H-1,2,4-triazol-5-yl)-1H-benzimidazol-2-yl]amino}pyridin-4-yl)methyl]piperazin-1-yl}methanone]
The IC50 of the first is 8.1-fold lower: 94.8 nM for the first, 770 nM for the second.

First: CC(c1ccnc(Nc2nc3ccc(-c4cc(C(F)(F)F)ncn4)cc3[nH]2)c1)N1CCN(C(=O)C2CC2)CC1 (racemic) [Example 29.01.02, (rac)-cyclopropyl(4-{1-[2-({6-[6-(trifluoromethyl)pyrimidin-4-yl]-1H-benzimidazol-2-yl}amino)pyridin-4-yl]ethyl}piperazin-1-yl)methanone]
Second: CC(c1ccnc(Nc2nc3ccc(-c4cnn(C[C@@H]5CC5(Cl)Cl)c4)cc3[nH]2)c1)N1CCN(C(=O)CC(F)(F)F)CC1 (single isomer, unassigned) [Example 170.02, 1-{4-[(1R or 1S)-1-(2-{[6-(1-{[(1RS)-2,2-dichlorocyclopropyl]methyl}-1H-pyrazol-4-yl)-1H-benzimidazol-2-yl]amino}pyridin-4-yl)ethyl]piperazin-1-yl}-3,3,3-trifluoropropan-1-one]
The IC50 of the first is 1.5-fold lower: 3.47 nM for the first, 5.21 nM for the second.

`COc1c(OCC2CC2)ncnc1-c1ccc2nc(Nc3cc(CN4CCN(C(=O)OC(C)(C)C)CC4)ccn3)[nH]c2c1` [Example 65.01.01, tert-butyl 4-{[2-({6-[6-(cyclopropylmethoxy)-5-methoxypyrimidin-4-yl]-1H-benzimidazol-2-yl}amino)pyridin-4-yl]methyl}piperazine-1-carboxylate] and `CC(C)(C)OC(=O)N1CCN(Cc2ccnc(Nc3nc4ccc(-c5ccnc(N6CCCC6)n5)cc4[nH]3)c2)CC1` [Example 177.01, tert-butyl 4-{[2-({6-[2-(pyrrolidin-1-yl)pyrimidin-4-yl]-1H-benzimidazol-2-yl}amino)pyridin-4-yl]methyl}piperazine-1-carboxylate] are within 1.5-fold of each other in IC50: 255 nM for the first, 227 nM for the second.
